A short description of data set [1]: Human liver microsome stability assay. It counts as in vitro ADME. The note with it: 10 μM compound; for % left (Human LM), (1 h): cells marked (1 h); for half-life at 10 μM: human, liver microsomes, read-out: Half-life (min) (HumanLM). As to the method:
(§1) Human and mouse liver microsomes were obtained fom BD Gentest.
(§2) Each evaluation included six independent assays carried out three at a time, on two different days
(§3) 2. For a total volume of Microsomal Assay Mixture (MAM) 390 μL, sufficient for seven time points, combine the following
(§4) 3. Sonicate MAM for 5 min and meanwhile thaw microsomes (20 mg/mL) (BD Gentest, Cat #452156) on ice.
(§5) 4. Aliquot 100 μL of ice cold ISTD into 7 separate 1.5 mL conical vials and label them the time points for 0, 10, 20, 40, 60, 90, and 120 min.
(§6) 5. Arrange the timer. Microsomes (Final concentration of 0.5 mg/mL) should be added to all time points except the zero time point.
(§7) 6. Add 50 μL of the MAM solution to the conical vial labelled as zero time point. Place the remaining MAM solution in the incubator (37° C.) for 5 min and initiate the reaction with addition of microsomes (8.8 μL) and record the time.
(§8) 7. At the end of each time interval remove 50 μL and add 100 μL to ISTD in conical vial, sonicate for 10 sec and spin down at 10,000 rpm for 5 minutes.
(§9) 8. Take 100 μL of supernatant and transfer to Spin-X HPLC filter tubes (Corning Incorporated, Cat #8169) and centrifuge at 13,000 rpm for 5 minutes and take 5 μL from this solution and dilute in 495 μL of LCMS grade methanol (Fischer scientific, CAS #67-56-1) in an 2 mL glass auto sampler vial (Microsolv, Cat #95025-WCV) 9. The samples are analyzed by LCMS-8040. (Shimadzu)
(§10) Calculation: From the peak area, calculate the following
(§11) The compounds are tested for the metabolic stability in the Human and Mouse Liver microsomes at 10 μM concentration.
(Liver microsomes are vesicles of endoplasmic reticulum, rich in cytochrome P450 enzymes.)

Data set [2] can be described thus: Mouse liver microsome stability assay. In kind it is in vitro ADME. The note with it: 10 μM compound; for half-life at 10 μM: mouse, liver microsomes, read-out: Half-life (min) (MouseLM); for % left (MouseLM), (1 h): cells marked (1 h). How it is done:
as §1, §2, §3, §4, §5, §6, §7, §8, §9, §10, §11

Data set [3] relates to mice subjected to chronic restraint stress (CRS). In words: Y-maze alternation task, chronic restraint stress (CRS) mice. It counts as in vivo, mouse. How it is done: C57/B16 mice, males and females were ordered from Jackson Laboratories at 8 weeks old and were kept in normal housing conditions (12 h light ON cycle starting at 7 am/water and food ad libitum) for one week. During this week, animals were single housed and handled to reduce the anxiety-like response toward the experimenter. To induce a working memory deficit, mice were subjected to a chronic restraint stress protocol (CRS). They were placed in a 50 ml Falcon® tube, twice a day, for 1 hour during their diurnal cycle. The time of occurrence of the stress was randomized every day to avoid predictability. CRS was not applied on testing days. Y-maze test occurred 15 hours minimum after the last stressor.
Mice were first habituated to the Y-maze apparatus and distal cues during 2 consecutive days over a 10 min free exploration session (one session per day). The next day, animals performed a training session consisting in seven successive trials separated by a 30 s inter-trial interval (ITI); during this training session, mice were familiarized with the experimental procedure (opening and closing of the doors and confinement into the goal arms). For each trial, mice remained in the start-box for a 30 s ITI. Then, the door was opened and the mouse was allowed to enter freely one of the two goal arms; the chosen arm was closed and the choice was recorded. After a 30 s confinement period into the chosen arm, the mouse was removed and brought back to the start-box for a second trial identical to the first one and this procedure was repeated over the series of trials.
The same general procedure used in the training session was implemented 24 h later, except that the ITI was lengthened to 90 s. For this experiment, animals were acutely injected i.p. with vehicle or αPAM, 30 minutes before the beginning of the test. To dissociate memory deficits from an eventual progressive loss of motivation to alternate over the series, an 8th trial was added to the series which was separated from the 7th trial by a shorter ITI (5 s). All animals failing to alternate at the 8th trial were excluded. The mean alternation rate was calculated and was expressed in percentage (number of alternation done by the animal/total number of alternation possible×100)±SEM. The percentage of alternation during the entire task is considered as an index of working memory performance (50% of being a random alternation rate). Factorial ANOVA was applied to the data to reveal differences between groups. If the ANOVA was significant for group effect (p<0.05), Scheffe post-hoc analysis were conducted to identify which groups are different from each other.
All drugs were diluted in a vehicle solution containing 85% H2O, 14% propylene glycol (Sigma Aldrich) and 1% Tween 80 (Sigma Aldrich). Working solutions were prepared at a concentration of 10 mg/mL and administered i.p. adjusted to the body weight of each animal. Doses used were either 1, 5, 10 or 20 mg/kg. For all Y maze experiments, animals were acutely injected i.p. with vehicle or αPAM, 30 minutes before the beginning of the test.

Data set [4] in a line: Pharmacokinetics in mice (plasma, liver, brain). The note with it: for concentration at 20 min: C57/BL6, mouse, ip, 10 mg/kg.
The mark [5] stands for this setting: 1 mg/kg i.p. 30 min before testing.
Setting [6] is: 5 mg/kg i.p. 30 min before testing.
[7] abbreviates: 10 mg/kg i.p. 30 min before testing.

These results are taken from patent US10906909B2, “Treatment of cognitive and mood symptoms in neurodegenerative and neuropsychiatric disorders with ALPHA5-containing GABAA receptor agonists” (UWM Research Foundation, Inc., priority 2016, dated 2021).

Several values for one entry are separate records, joined by “and”; a condition that tells them apart may be missing. Equal values may be shown once. Entries after “also recorded” stand apart in the source; their conditions may differ. A value given as a limit tells only on which side of the number the result lay.

With `C#Cc1ccc2c(c1)C(c1ccccc1F)=N[C@H](C)c1c(C(=O)NC)ncn1-2` [MP-III-022], in data set [1], the “% left (Human LM), (1 h)” value came to 69.4 ± 0.4% and the half-life (in general, the time in which the quantity being followed falls by half) at 10 μM turned out to be 141 ± 18 min. In addition, in data set [2], the “% left after 2 hr. (MouseLM)” value is 76.6% and 76.6 ± 0.2%; the half-life at 10 μM was 164 ± 10 min. In addition, the “Alternation rate (%)” value in data set [3] (Dose 5 mg/kg) is reported as 45.5%.

For `C#Cc1ccc2c(c1)C(c1ccccc1F)=N[C@H](C)c1c(C(=O)NCC)ncn1-2` [GL-II-74, (R)—N-ethyl-8-ethynyl-6-(2-fluorophenyl)-4-methyl-4H-benzo[f]imidazo[1,5-a][1,4]diazepine-3-carboxamide], the half-life at 10 μM in data set [1] was found to be 751 ± 214 min. Also, the “molar concentration range reached in mouse brain tissue” value (shortened to “molar concentration range reached”) in data set [4] (10 mg/kg dose i.p.) is “micromolar range”. In data set [2], the “% left (MouseLM), (1 h)” value is reported as 56.5 ± 0.3% and the half-life at 10 μM came out at 69 ± 3 min. The “Alternation rate (%)” value in data set [3] (Dose 1-5-10 mg/kg) was below 58.3%.

For the compound `C#Cc1ccc2c(c1)C(c1ccccc1F)=N[C@H](C)c1c(C(=O)N3CCCC3)ncn1-2` [GL-II-76, (R)-(8-ethynyl-6-(2-fluorophenyl)-4-methyl-4H-benzo[f]imidazo[1,5-a][1,4]diazepin-3-yl)(pyrrolidin-1-yl)methanone], the “% left (Human LM), (1 h)” value in data set [1] was 75 ± 0.1%. For the same compound, the half-life at 10 μM in data set [1] was found to be 154 ± 5 min; in data set [2], 23 ± 1 min. Also, the concentration at 20 min in data set [4] (brain) is 204 ± 101 ng/g; in data set [4] (liver), 4360 ng/g; in data set [4] (plasma) it was 605 ± 198 ng/mL. The brain penetrance entry in data set [4] (mice and rats) is listed as “brain-penetrant at the exception of GI-II-76”. Moreover, the “brain concentrations, suitability for CNS-active drug” value in data set [4] (pilot cassette study, mice and rats) is given as “suboptimal”. Further, the “% left (MouseLM), (1 h)” value in data set [2] amounted to 18.6 ± 0.3%. For the same compound, the “Alternation rate (%)” value in data set [3] (Dose 10 mg/kg) turned out to be 47.2%.

For the compound `C#Cc1ccc2c(c1)C(c1ccccc1F)=N[C@H](C)c1c(C(=O)NC3CC3)ncn1-2` [GL-II-75, (R)—N-cyclopropyl-8-ethynyl-6-(2-fluorophenyl)-4-methyl-4H-benzo[f]imidazo[1,5-a][1,4]diazepine-3-carboxamide], the values for the half-life at 10 μM in data set [1] and in data set [2] were 712 ± 165 min and 239 ± 22 min, respectively. For the same compound, the “molar concentration range reached” value in data set [4] (10 mg/kg dose i.p.) was “micromolar range”. For the same compound, in data set [2], the “% left (MouseLM), (1 h)” value is given as 83.5 ± 0.2%. Also, the “effect on CRS-induced working memory deficit (percent alternation rate, Y-maze)” value (“effect … (percent alternation rate, Y-maze)” below) in data set [3] (setting [5]), in data set [3] (setting [6]) and in data set [3] (setting [7]) was “significant reversal of CRS-induced impairment in working memory; also recorded: significant pro-cognitive effect” throughout.

Take `C#Cc1ccc2c(c1)C(c1ccccc1F)=N[C@H](C)c1c(C(=O)N(C)C)ncn1-2` [GL-II-73, (R)-8-ethynyl-6-(2-fluorophenyl)-N,N,4-trimethyl-4H-benzo[f]imidazo[1,5-a][1,4]diazepine-3-carboxam]: the “Half-life (min) (HumanLM)” value in data set [1] amounted to 755 ± 243 min. Further, in data set [4] (10 mg/kg dose i.p.), the “molar concentration range reached” value is “micromolar range”. Also, in data set [2], the “Half-life (min) (MouseLM)” value was determined as 309 ± 36 min. In addition, the “% left (MouseLM), (1 h)” value in data set [2] is 81.6% and 86.6 ± 0.2%. The “effect … (percent alternation rate, Y-maze)” value in data set [3] (setting [6]), in data set [3] (setting [7]) and in data set [3] (20 mg/kg i.p. 30 min before testing) was “pro-cognitive effect” each time.

For the compound `C#Cc1ccc2c(c1)C(c1ccccc1F)=N[C@@H](C)c1c(C(=O)N(C)C)ncn1-2` [GL-I-54, (S)-8-ethynyl-6-(2-fluorophenyl)-N,N,4-trimethyl-4H-benzo[f]imidazo[1,5-a][1,4]diazepine-3-carboxamide], the “% left after 2 hr. (Human LM)” value in data set [1] (2 hr) amounted to 36.4 ± 2.0%. Also, the half-life at 10 μM stood at 100 ± 4.5 min in data set [1] and 53 ± 10 min in data set [2]. Besides, the “molar concentration range reached” value in data set [4] (i.p. dosing at 3 mg/kg) is “high submicromolar to low micromolar values”. Also, the “% left after 2 hr. (MouseLM)” value in data set [2] was 15.0% and 15.0 ± 3.0%. Moreover, the results for the “effect … (percent alternation rate, Y-maze)” value in data set [3] (setting [5]) and in data set [3] (setting [7]) were “decreased performance” and “significant reversal of CRS-induced impairment in working memory; also recorded: significant pro-cognitive effect”, respectively.
